Tests used:
[1] = tested on: macrophages within the thoracic cavity of the patient suffering from sarcoidosis; assay: GSH and GSSG content by enzyme recycling method in macrophages of a sarcoidosis patient incubated with NAC (Example 5); assay type: cell-based, human; conditions: 5 mM NAC, 3 hours
Description: The amounts of oxidative and reductive monocytes macrophages contained in monocytes preparation separated and collected in a usual manner from the peripheral blood and the thoracic cavity of the patient suffering from sarcoidosis were examined by biochemically measuring the contents of reductive glutathione (GSH) end oxidative glutathione (GSSG) by the enzyme recycling method. The peripheral blood of the healthy person was used as a control.
The peripheral blood of the healthy person and the peripheral blood of the patient suffering from sarcoidosis were collected with heparin. Or 150 ml of a physiological saline solution was injected into the bronchia of the patient using a bronchofiber, and 75 ml of bronchoalveolar lavaged fluid were recovered. Monocytes obtained by separating and purifying both of them using Ficoll-Hypaque (LYMPHOPREP) were suspended in an RPMI 1640 medium containing 10% fetal calf serum, and washed three times to obtain macrophage/monocyte preparation adherent to a glass petri dish for 30 minutes. Subsequently, a group incubated for 3 hours with the addition of 5 mM N-acetylcysteine (NAC) and a group of a medium component alone were prepared. A rubber policeman was used to recover adherent cells from the petri dish. With respect to 5×10^5 macrophages, the following examination was conducted.
The contents of reductive glutathione and oxidative glutathione were measured by the above-mentioned enzyme recycling method. […]
A 10 mM phosphate buffer (590 μl, pH 7.5) containing 0.5 mM EDTA, 100 μl of glutathione reductase (supplied by Boehlinger Mannhein) adjusted to a concentration of 6 u/ml in the same buffer, 50 μl of 4 mM NADPH (supplied by Sigma Co.) prepared with 5% NaHCO3 and 10 μl of the sample were mixed. […] The change in the absorbance of 412 nm at 37° C. over the course of time was measured using a spectrophotometer. […]

[2] = tested on: IL-12; assay: IL-12 production of MΦ after NAC drinking and/or IL-2 administration (Example 8); assay type: in vivo, DBA/2 female mice; conditions: stimulated with LPS and IFNγ; control mice 0 pg/ml
Description: The amount of IL-12 was determined through bioassay using cells of human T cell strain 2D6 (J. Leukocyte Biology, vol. 61, p. 346, 1997).
2D6 cells which had been incubated in an RPMI 1640 medium containing 500 pg/ml of recombinant human IL-12, 50 μM of 2-mercaptoethanol and 10% FCS (fetal calf serum) were moved to a tube, and centrifugally washed three times with the above-mentioned medium without IL-12 and cell density was adjusted to 1×10^5/ml. The cell suspension was added in an amount of 100 μl each to a 96-well flat bottom plate containing a sample serially diluted in advance with an RPMI 1640 medium containing 50 μM of 2-mercaptoethanol and 10% FCS in an amount of 100 μl each. Subsequently, the mixture was charged into a 5% […] incubator of 37° C., and incubated for 48 hours. For final 6 hours, ^3H-TdR was pulsed (a substance adjusted to 370 kBq/ml in an RPMI 1640 medium containing 50 μM of 2-mercaptoethanol and 10% FCS was added in an amount of 50 μl each). The cells a harvested, and the radioactivity was measured using a β counter (Matrix 96, supplied by Packard).

[3] = tested on: reductive glutathione in peritoneal macrophages; assay: Reductive glutathione content of peritoneal macrophages by ACAS, advanced tumor-bearing mice (Example 4); assay type: in vivo, CDF1 mice; conditions: oral 1 mg/0.5 ml/h every day for 10 days from day 21 after COLON 26 implantation; control physiological saline
Description: Oxidative and reductive macrophages collected from peritoneal cavities of advanced tumor-bearing cachectic mice (COLON 26) and normal mice were determined. The COLON 26 transplantable tumor well known to induce a cancer cachexia was implanted subcutaneously in the back portion of CDF1 mice at a density of 5×10^5 cells/mouse. On day 21 after the tumor implantation, the cachectic condition was provided. Five milliliters of a physiological saline solution were intraperitoneally injected into the mice which became resistant to a therapeutic treatment. Peritoneal macrophages were collected, and suspended in a phenol red-free RPMI 1640 medium containing 10% fetal calf serum to a density of 3×10^5 cells/ml. One hundred microliters of the suspension were charged in a Lab-Tek Chamber Slide (#136439, supplied by Nunc), and incubated in 5% CO2 at 37° C. for 3 hours. After the nonadherent cells were removed, 200 μl of the above-mentioned medium free from serum were added thereto, and monochlorobimane (MCB) was added thereto in an amount of 10 μM. The reaction was conducted for 30 minutes, and the image analysis was conducted on the basis of the UV absorption using an ACAS device (supplied by Meridien).
The COLON 26 transplantable tumor was implanted subcutaneously in the back portion of CDF1 mice at a density of 5×10^5 cells/mouse. […]

[4] = tested on: COLON 26 transplantable tumor; assay: Survival of COLON 26 advanced tumor-bearing cachectic mice (Example 4); assay type: in vivo, CDF1 mice; conditions: oral 1 mg/0.5 ml/h for 10 days, COLON 26 mice; control mice 42

| SMILES | ratio of reductive GSH [1] | content of reductive GSH ([1]; without NAC 1.45 μM) [µM] | content of oxidative GSSG ([1]; without NAC 15.85 μM) [µM] | amount of IL-12 [2] [pg/mL] | amount of oxidative macrophage (reductive glutathione content decreased) in comparison with control mice [3] | average number of survival days [4] [days] |
| --- | --- | --- | --- | --- | --- | --- |
| CC(=O)N[C@@H](CS)C(=O)O [NAC, N-acetylcysteine, reference compound] | exceeded 80% | 20.45 | 4.32 | 620 |  |  |
| CCOC(=O)CNC(=O)[C@H](CS)NC(=O)CC[C@H](N)C(=O)O [GSH-OEt, glutathione monoethyl ester] |  |  |  |  | relatively decreased | 148 |
